# Measured values taken from patent US10517889B2, “Modulators of SMAD7 expression” (Ionis Pharmaceuticals, Inc., priority 2017, dated 2019).
# Strand notation (5' to 3'): a small letter for the sugar, then the base; units joined by * are phosphorothioate-linked, units joined directly phosphodiester-linked; [ ] holds rarer units or linkages, { } end groups; capitals alone tell only the bases. k = constrained ethyl (cEt); [5mC] = 5-methylcytosine; d = 2'-deoxy (DNA)
# System: human SMAD7 mRNA
# Experiment: Antisense inhibition of human SMAD7 mRNA expression in Hep3B cells by 3-10-3 cEt gapmers, 10,000 nM, electroporation (Example 2)
# Format: cell-based
# Conditions: Hep3B cells, electroporation with 10,000 nM antisense oligonucleotide, approximately 24 hours, RTS5062, percent inhibition of SMAD7 mRNA relative to untreated control cells
# Outline: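 Hep3B cells (20,000/well) were electroporated with 10,000 nM 3-10-3 cEt gapmer (16-mer, phosphorothioate, 5-methylcytosines) and harvested after about 24 h. SMAD7 mRNA quantified by RT-qPCR with primer probe set RTS5062, normalized to total RNA by RiboGreen; percent inhibition relative to untreated cells.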
row,Substance,% Inhibition [%]
1,799272 (antisense kA*kT*kT*dA*d[5mC]*dT*d[5mC]*dG*dA*dG*dT*d[5mC]*dA*kG*kG*k[5mC]) [compound 799272],55
2,799273 (antisense kA*kT*k[5mC]*dA*dT*dT*dA*d[5mC]*dT*d[5mC]*dG*dA*dG*kT*k[5mC]*kA) [compound 799273],41
3,799274 (antisense kT*kT*kA*dA*dT*d[5mC]*dA*dT*dT*dA*d[5mC]*dT*d[5mC]*kG*kA*kG) [compound 799274],24
4,799275 (antisense k[5mC]*kA*kG*dT*dT*dA*dA*dT*d[5mC]*dA*dT*dT*dA*k[5mC]*kT*k[5mC]) [compound 799275],0
5,799276 (antisense kG*kG*k[5mC]*dA*dG*d[5mC]*d[5mC]*dA*dG*dT*dT*dA*dA*kT*k[5mC]*kA) [compound 799276],29
6,799277 (antisense k[5mC]*kT*k[5mC]*d[5mC]*dG*dG*dG*d[5mC]*dA*dG*d[5mC]*d[5mC]*dA*kG*kT*kT) [compound 799277],21
7,799278 (antisense k[5mC]*k[5mC]*k[5mC]*dG*dT*d[5mC]*dT*dG*dG*dG*d[5mC]*dT*d[5mC]*k[5mC]*kG*kG) [compound 799278],14
8,799279 (antisense kA*k[5mC]*k[5mC]*dT*dT*dG*dT*d[5mC]*dA*d[5mC]*d[5mC]*d[5mC]*dG*kT*k[5mC]*kT) [compound 799279],48
9,799289 (antisense kT*kA*kT*dT*dA*dA*dT*dG*dG*dT*d[5mC]*dT*dG*k[5mC]*kT*k[5mC]) [compound 799289],61
10,799290 (antisense kG*kA*kT*dT*dA*dT*dT*dA*dA*dT*dG*dG*dT*k[5mC]*kT*kG) [compound 799290],16
11,799291 (antisense kG*k[5mC]*kT*dG*dA*dT*dT*dA*dT*dT*dA*dA*dT*kG*kG*kT) [compound 799291],0
12,799292 (antisense kT*kG*kA*dT*dG*d[5mC]*dT*dG*dA*dT*dT*dA*dT*kT*kA*kA) [compound 799292],19
13,799293 (antisense k[5mC]*k[5mC]*kT*dT*dG*dA*dT*dG*d[5mC]*dT*dG*dA*dT*kT*kA*kT) [compound 799293],5
14,799294 (antisense k[5mC]*kG*k[5mC]*dG*dG*d[5mC]*d[5mC]*dT*dT*dG*dA*dT*dG*k[5mC]*kT*kG) [compound 799294],13
15,799295 (antisense kG*kA*k[5mC]*dT*d[5mC]*dG*d[5mC]*dG*dG*d[5mC]*d[5mC]*dT*dT*kG*kA*kT) [compound 799295],30
16,799296 (antisense kG*k[5mC]*kT*dG*dA*d[5mC]*dT*d[5mC]*dG*d[5mC]*dG*dG*d[5mC]*k[5mC]*kT*kT) [compound 799296],45
17,799297 (antisense kA*kA*kA*dG*dG*d[5mC]*dT*dG*dA*d[5mC]*dT*d[5mC]*dG*k[5mC]*kG*kG) [compound 799297],62
18,799298 (antisense k[5mC]*k[5mC]*kA*dA*dA*dA*dG*dG*d[5mC]*dT*dG*dA*d[5mC]*kT*k[5mC]*kG) [compound 799298],54

# Same assay, conditions: Hep3B cells, electroporation, 10,000 nM antisense oligonucleotide, approximately 24 hours, RTS5062, relative to untreated control cells
row,Substance,% inhibition of SMAD7 mRNA expression [%]
1,799270 (antisense kA*kG*kT*d[5mC]*dA*dG*dG*d[5mC]*dT*d[5mC]*dA*dA*dT*kG*kA*kG) [compound 799270],16
2,799271 (antisense k[5mC]*kT*k[5mC]*dG*dA*dG*dT*d[5mC]*dA*dG*dG*d[5mC]*dT*k[5mC]*kA*kA) [compound 799271],60
3,799280 (antisense kA*kG*k[5mC]*dA*d[5mC]*d[5mC]*dT*dT*dG*dT*d[5mC]*dA*d[5mC]*k[5mC]*k[5mC]*kG) [compound 799280],44
4,799281 (antisense k[5mC]*kA*k[5mC]*dA*dG*d[5mC]*dA*d[5mC]*d[5mC]*dT*dT*dG*dT*k[5mC]*kA*k[5mC]) [compound 799281],25
5,799282 (antisense kA*k[5mC]*kA*dG*dA*d[5mC]*d[5mC]*dA*d[5mC]*dA*dG*d[5mC]*dA*k[5mC]*k[5mC]*kT) [compound 799282],16
6,799283 (antisense kA*kA*kG*dA*d[5mC]*dA*dG*dA*d[5mC]*d[5mC]*dA*d[5mC]*dA*kG*k[5mC]*kA) [compound 799283],34
7,799284 (antisense k[5mC]*kG*kT*dA*dA*dG*dA*d[5mC]*dA*dG*dA*d[5mC]*d[5mC]*kA*k[5mC]*kA) [compound 799284],51
8,799285 (antisense kG*kG*k[5mC]*dT*dT*d[5mC]*dA*d[5mC]*dT*dG*d[5mC]*d[5mC]*d[5mC]*kA*kT*k[5mC]) [compound 799285],36
9,799286 (antisense kG*k[5mC]*kT*d[5mC]*dA*dG*dG*d[5mC]*dT*dT*d[5mC]*dA*d[5mC]*kT*kG*k[5mC]) [compound 799286],0
10,799287 (antisense kT*k[5mC]*kT*dG*d[5mC]*dT*d[5mC]*dA*dG*dG*d[5mC]*dT*dT*k[5mC]*kA*k[5mC]) [compound 799287],15
11,799288 (antisense kT*kA*kA*dT*dG*dG*dT*d[5mC]*dT*dG*d[5mC]*dT*d[5mC]*kA*kG*kG) [compound 799288],23
12,799299 (antisense kA*kT*kT*d[5mC]*d[5mC]*dA*dA*dA*dA*dG*dG*d[5mC]*dT*kG*kA*k[5mC]) [compound 799299],42
13,799300 (antisense k[5mC]*kA*k[5mC]*dA*dT*dT*d[5mC]*d[5mC]*dA*dA*dA*dA*dG*kG*k[5mC]*kT) [compound 799300],28
14,799301 (antisense k[5mC]*k[5mC]*kA*d[5mC]*dA*d[5mC]*dA*dT*dT*d[5mC]*d[5mC]*dA*dA*kA*kA*kG) [compound 799301],37
15,799302 (antisense kA*kA*kA*d[5mC]*d[5mC]*dA*d[5mC]*dA*d[5mC]*dA*dT*dT*d[5mC]*k[5mC]*kA*kA) [compound 799302],39
16,799303 (antisense kG*kA*k[5mC]*dA*dA*dA*d[5mC]*d[5mC]*dA*d[5mC]*dA*d[5mC]*dA*kT*kT*k[5mC]) [compound 799303],73
17,799304 (antisense kG*kA*kA*dA*dG*dA*d[5mC]*dA*dA*dA*d[5mC]*d[5mC]*dA*k[5mC]*kA*k[5mC]) [compound 799304],54
18,799305 (antisense k[5mC]*kA*kT*dG*dA*dA*dA*dG*dA*d[5mC]*dA*dA*dA*k[5mC]*k[5mC]*kA) [compound 799305],0
19,799306 (antisense kA*kA*kA*d[5mC]*dA*dG*d[5mC]*dA*dT*dG*dA*dA*dA*kG*kA*k[5mC]) [compound 799306],27
20,799307 (antisense kT*k[5mC]*kT*dA*dA*dA*d[5mC]*dA*dG*d[5mC]*dA*dT*dG*kA*kA*kA) [compound 799307],10
21,799308 (antisense k[5mC]*kG*k[5mC]*dT*d[5mC]*dT*dA*dA*dA*d[5mC]*dA*dG*d[5mC]*kA*kT*kG) [compound 799308],47
